Laboratory results: patent US8569280B2, “Methods for the treatment of multiple myeloma” (Immune Disease Institute, priority 2005, dated 2013)

How the values were obtained:
[1] = system: MM cells; assay: transwell migration assay of MM cells toward SDF-1; format: cell-based
Procedure: AMD3100 was evaluated in amounts of 0-100 μM with all wells containing 20 nM SDF-1 in the lower chambers. […] 10 μM of anti-CXCR4MAB171 antibody inhibited migration to 53%, and 200 μM of MAB171 inhibited migration to 35% compared to a control (P=0.007).
The transwell migration assay was used to test the effect of the CXCR4 inhibitor AMD3100 on the migration of MM cells.
Similarly, the transwell migration assay was used to test the effect of the anti-CXCR 4 antibody MAB171 (10-800 μM) for 16 hours and its IgG2a isotype control on the in vitro migration of MM cells. […] Anti-CXCR4MAB171 inhibited 10 μM migration to 53%, and 200 μM migration to 35% compared with the control (P=0.007).

[2] = system: 5T33mM cells; details: recipient mice treated with inhibitor
Procedure: AMD3100 and PBS is implanted, and the survival rate after 2 hours, 24 hours and 6 days is measured.
5T33mM cells, obtained as described above, are injected into recipient mice.

[3] = system: 5T33mM cells; assay: survival and serum IgG2b of mice injected with 5T33mM cells; format: in vivo, mouse; details: subcutaneous osmotic pump, 25 mg/mL, 0.5 μl/hr, 21 days, started at the time of cell injection; versus PBS
Procedure: FIG. 5 is a graph showing the survival of C57BL/6 mice after injection with 10×10^6 5T33^eGFP cells. Osmotic pumps are installed at the time of injection, and either AMD3100 or PBS is implanted. The osmotic pumps are changed every 7 days, and the pump administration is discontinued after 21 days.
AMD3100 is delivered via a subcutaneous osmotic pump at a concentration of 25 mg/mL and a delivery rate of 0.5 μl/hr. The osmotic devices delivered the drug for 21 days.

c1cc(CN2CCCNCCNCCCNCC2)ccc1CN1CCCNCCNCCCNCC1 [AMD3100]
inhibition at 10 µM ([1]; 10 μM AMD3100, 16 hours, 20 nM SDF-1 in lower chambers, read-out: inhibition of migration of MM cells compared with control): 70%
dose dependence of inhibition of MM cell migration ([1]; AMD3100 0-100 μM, MAB171 0-400 μg/mL or 10-800 μM, 16 hours): dose-dependent inhibition of migration
inhibition of migration at doses higher than 10 μM ([1]; AMD3100 above 10 μM up to 100 μM, 16 hours): did not induce further inhibition of migration
homing of 5T33mM cells to bone marrow ([2]; 2 hours): does not affect
retention of 5T33mM cells in bone marrow ([2]; 24 hours): does not affect
proliferation/survival of 5T33mM cells in bone marrow ([2]; 6 days): significantly reduces
survival of mice injected with 5T33 cells [3]: an increase in survival is observed
